Assay results reported in paper PMC11233931, “Remodeling tumor‐associated macrophage for anti‐cancer effects by rational design of irreversible inhibition of mitogen‐activated protein kinase‐activated protein kinase 2” (MedComm, 2024).

How the values were obtained:
Assay in all cases: Eurofins kinase selectivity profile against 380 other human recombinant kinases (Table S2)
Format in all cases: biochemical
[1] = molecular target: T1, 380 human recombinant protein kinases (Homo sapiens, UniProt Q9NYV4); settings: CDK12/cyclinK(h), read-out: Inhibition rate
T1 construct: purchased Eurofins (Celle Lévescault)
Method in brief: (§1)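 Selectivity panel of 380 human recombinant protein kinases, screened by Eurofins at a range of concentrations.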

[2] = molecular target: T2, 380 human recombinant protein kinases (Homo sapiens, UniProt Q9H3Y6); settings: SRMS(h), read-out: Inhibition rate (%)
T2 construct: purchased Eurofins (Celle Lévescault)
Method in brief: as §1

[3] = molecular target: T3, 380 human recombinant protein kinases (Homo sapiens, UniProt P35916); settings: Flt4(h), read-out: Inhibition rate
T3 construct: purchased Eurofins (Celle Lévescault)
Method in brief: as §1

[4] = molecular target: T4, 380 human recombinant protein kinases (Homo sapiens, UniProt O75747); settings: PI3KC2γ(h), read-out: Inhibition rate (%)
T4 construct: purchased Eurofins (Celle Lévescault)
T4 sequence (O75747 1-1486): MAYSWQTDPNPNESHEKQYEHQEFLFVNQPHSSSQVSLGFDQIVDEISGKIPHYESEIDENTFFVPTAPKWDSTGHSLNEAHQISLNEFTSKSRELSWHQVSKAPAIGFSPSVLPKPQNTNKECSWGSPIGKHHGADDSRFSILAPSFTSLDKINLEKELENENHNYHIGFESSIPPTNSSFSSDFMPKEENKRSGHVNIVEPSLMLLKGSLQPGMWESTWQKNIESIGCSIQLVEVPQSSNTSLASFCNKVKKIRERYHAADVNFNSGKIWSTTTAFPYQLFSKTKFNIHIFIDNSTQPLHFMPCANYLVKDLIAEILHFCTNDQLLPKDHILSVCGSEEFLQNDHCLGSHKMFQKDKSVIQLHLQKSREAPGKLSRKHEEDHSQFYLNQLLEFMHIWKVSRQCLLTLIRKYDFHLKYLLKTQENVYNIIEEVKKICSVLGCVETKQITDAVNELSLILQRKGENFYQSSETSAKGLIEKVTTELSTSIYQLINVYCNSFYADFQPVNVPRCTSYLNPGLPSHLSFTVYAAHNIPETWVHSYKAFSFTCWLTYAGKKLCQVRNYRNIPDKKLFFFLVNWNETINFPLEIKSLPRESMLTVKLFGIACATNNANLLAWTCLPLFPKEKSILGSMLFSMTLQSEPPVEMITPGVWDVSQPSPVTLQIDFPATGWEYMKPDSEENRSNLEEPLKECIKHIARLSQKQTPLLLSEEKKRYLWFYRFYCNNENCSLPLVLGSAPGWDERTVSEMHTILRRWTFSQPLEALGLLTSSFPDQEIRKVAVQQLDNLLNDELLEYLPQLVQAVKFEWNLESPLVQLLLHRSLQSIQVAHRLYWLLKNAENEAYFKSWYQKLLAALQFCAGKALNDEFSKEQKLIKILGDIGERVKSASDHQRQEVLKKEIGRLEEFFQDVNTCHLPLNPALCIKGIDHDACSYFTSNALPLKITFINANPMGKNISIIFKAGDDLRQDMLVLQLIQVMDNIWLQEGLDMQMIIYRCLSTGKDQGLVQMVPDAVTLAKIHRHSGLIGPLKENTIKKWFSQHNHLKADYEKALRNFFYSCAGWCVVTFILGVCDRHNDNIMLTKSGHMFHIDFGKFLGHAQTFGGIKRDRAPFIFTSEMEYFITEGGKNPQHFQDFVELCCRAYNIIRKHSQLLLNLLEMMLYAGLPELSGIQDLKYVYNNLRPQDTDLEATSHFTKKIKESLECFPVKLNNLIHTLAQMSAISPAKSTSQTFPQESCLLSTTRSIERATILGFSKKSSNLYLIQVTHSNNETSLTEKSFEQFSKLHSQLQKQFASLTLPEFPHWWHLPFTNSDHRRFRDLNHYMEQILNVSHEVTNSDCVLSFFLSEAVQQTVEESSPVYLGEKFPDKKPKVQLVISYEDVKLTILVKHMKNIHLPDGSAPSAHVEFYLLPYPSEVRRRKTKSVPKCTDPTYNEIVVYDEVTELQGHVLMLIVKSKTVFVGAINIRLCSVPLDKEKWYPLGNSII
Method in brief: as §1

[5] = molecular target: T5, 380 human recombinant protein kinases (Homo sapiens, UniProt Q8N4C8); settings: MINK(h), read-out: Inhibition rate
T5 construct: purchased Eurofins (Celle Lévescault)
Method in brief: as §1

[6] = molecular target: T6, 380 human recombinant protein kinases (Homo sapiens, UniProt Q16512); settings: PRK1(h), read-out: Inhibition rate
T6 construct: purchased Eurofins (Celle Lévescault)
Method in brief: as §1

[7] = molecular target: T7, 380 human recombinant protein kinases (Homo sapiens, UniProt Q9C098); settings: DCAMKL3(h), read-out: Inhibition rate
T7 construct: purchased Eurofins (Celle Lévescault)
Method in brief: as §1

[8] = molecular target: T8, 380 human recombinant protein kinases (Homo sapiens, UniProt P11309); settings: Pim-1(h), read-out: Inhibition rate
T8 construct: purchased Eurofins (Celle Lévescault)
Method in brief: as §1

[9] = molecular target: T9, 380 human recombinant protein kinases (Homo sapiens, UniProt Q8IVW4); settings: CDKL3(h), read-out: Inhibition rate
T9 construct: purchased Eurofins (Celle Lévescault)
Method in brief: as §1

T1 sequence (Q9NYV4 whole entry): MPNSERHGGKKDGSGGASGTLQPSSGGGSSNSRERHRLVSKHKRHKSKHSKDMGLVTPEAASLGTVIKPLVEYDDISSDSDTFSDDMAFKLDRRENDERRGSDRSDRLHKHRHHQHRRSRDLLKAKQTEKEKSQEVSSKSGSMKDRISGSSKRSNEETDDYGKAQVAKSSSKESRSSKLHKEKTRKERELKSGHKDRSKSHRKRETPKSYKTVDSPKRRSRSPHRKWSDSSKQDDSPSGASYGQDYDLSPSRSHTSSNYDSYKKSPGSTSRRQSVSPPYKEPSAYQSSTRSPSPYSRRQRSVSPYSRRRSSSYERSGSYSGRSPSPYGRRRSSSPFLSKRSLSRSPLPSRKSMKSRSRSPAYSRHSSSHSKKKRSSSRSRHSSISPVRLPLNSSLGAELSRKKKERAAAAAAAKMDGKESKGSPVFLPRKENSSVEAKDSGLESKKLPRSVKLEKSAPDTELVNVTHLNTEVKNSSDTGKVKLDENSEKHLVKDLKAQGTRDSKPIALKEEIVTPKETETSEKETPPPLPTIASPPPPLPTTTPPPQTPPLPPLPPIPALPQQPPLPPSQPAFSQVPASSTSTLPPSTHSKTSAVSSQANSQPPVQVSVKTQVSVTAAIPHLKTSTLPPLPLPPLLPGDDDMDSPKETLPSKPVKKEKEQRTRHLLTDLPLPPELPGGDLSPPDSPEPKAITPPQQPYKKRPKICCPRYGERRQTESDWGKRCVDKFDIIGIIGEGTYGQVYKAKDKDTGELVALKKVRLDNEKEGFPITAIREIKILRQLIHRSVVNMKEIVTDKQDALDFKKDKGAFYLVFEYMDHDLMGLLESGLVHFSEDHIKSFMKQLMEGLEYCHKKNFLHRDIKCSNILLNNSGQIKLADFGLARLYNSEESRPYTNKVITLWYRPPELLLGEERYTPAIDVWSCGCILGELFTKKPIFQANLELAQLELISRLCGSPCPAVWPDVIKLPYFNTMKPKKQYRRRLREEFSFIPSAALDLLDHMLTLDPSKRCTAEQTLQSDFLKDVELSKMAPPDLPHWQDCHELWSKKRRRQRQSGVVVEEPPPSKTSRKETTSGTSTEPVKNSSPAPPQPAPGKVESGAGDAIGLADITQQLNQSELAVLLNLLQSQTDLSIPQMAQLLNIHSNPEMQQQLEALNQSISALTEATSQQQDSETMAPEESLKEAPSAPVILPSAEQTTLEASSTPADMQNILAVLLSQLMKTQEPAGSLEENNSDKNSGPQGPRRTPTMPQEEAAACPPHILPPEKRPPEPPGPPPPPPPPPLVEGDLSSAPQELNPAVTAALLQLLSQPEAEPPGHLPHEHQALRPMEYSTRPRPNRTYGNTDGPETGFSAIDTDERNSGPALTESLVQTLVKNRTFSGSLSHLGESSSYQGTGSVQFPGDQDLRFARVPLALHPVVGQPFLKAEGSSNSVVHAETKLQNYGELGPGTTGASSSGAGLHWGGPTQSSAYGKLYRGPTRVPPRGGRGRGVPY
T7 sequence (Q9C098 whole entry): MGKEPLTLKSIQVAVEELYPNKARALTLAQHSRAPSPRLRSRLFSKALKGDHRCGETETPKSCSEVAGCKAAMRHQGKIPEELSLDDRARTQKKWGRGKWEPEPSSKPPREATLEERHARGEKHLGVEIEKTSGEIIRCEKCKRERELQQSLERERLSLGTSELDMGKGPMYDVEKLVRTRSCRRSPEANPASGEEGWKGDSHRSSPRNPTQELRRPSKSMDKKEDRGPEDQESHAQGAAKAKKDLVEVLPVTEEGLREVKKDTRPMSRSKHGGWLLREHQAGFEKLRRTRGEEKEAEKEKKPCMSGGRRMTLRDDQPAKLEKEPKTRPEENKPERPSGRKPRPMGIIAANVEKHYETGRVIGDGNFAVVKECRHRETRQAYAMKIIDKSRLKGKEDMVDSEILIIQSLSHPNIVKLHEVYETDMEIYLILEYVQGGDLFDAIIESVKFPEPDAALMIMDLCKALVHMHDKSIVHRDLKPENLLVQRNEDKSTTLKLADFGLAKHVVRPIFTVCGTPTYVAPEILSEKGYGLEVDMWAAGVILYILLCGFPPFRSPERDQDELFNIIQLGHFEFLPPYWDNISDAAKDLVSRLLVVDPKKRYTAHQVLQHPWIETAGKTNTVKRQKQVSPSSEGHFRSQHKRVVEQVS
T6 sequence (Q16512 whole entry): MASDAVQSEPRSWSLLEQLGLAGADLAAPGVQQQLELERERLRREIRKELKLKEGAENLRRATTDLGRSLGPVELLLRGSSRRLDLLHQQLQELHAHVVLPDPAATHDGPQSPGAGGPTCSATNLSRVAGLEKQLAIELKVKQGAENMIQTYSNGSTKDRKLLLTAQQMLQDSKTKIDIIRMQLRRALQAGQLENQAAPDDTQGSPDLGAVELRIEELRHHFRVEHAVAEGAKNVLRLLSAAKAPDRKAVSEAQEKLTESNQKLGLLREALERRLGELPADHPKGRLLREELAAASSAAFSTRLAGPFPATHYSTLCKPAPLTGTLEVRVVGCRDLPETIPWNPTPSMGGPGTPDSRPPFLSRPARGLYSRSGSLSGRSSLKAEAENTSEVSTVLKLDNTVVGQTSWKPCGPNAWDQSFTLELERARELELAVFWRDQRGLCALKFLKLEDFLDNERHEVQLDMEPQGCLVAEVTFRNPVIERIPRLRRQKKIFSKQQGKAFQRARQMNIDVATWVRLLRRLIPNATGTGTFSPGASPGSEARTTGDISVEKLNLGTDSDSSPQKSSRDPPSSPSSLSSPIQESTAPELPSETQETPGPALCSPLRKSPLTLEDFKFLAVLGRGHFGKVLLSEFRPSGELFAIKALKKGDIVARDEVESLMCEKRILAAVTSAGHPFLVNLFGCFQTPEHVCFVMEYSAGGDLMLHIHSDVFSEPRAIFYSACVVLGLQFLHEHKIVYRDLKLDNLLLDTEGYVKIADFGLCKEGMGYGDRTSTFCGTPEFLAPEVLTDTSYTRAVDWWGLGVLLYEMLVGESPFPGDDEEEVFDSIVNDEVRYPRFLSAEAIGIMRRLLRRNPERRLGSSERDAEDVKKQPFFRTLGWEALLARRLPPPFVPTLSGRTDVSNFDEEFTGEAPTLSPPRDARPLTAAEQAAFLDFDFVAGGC
T2 sequence (Q9H3Y6 whole entry): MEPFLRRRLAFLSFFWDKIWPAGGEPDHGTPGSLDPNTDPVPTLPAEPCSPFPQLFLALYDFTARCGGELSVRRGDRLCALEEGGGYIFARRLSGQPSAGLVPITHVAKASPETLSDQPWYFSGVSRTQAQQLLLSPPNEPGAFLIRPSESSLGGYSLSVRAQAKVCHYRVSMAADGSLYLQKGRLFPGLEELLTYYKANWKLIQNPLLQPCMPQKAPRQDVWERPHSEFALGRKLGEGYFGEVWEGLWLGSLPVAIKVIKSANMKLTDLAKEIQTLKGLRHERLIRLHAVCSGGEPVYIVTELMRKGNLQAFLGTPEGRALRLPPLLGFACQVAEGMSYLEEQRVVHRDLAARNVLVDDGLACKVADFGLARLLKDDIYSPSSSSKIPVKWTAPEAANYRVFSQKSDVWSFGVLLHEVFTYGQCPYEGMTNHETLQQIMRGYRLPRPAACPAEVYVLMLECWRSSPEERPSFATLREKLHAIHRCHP
T9 sequence (Q8IVW4 whole entry): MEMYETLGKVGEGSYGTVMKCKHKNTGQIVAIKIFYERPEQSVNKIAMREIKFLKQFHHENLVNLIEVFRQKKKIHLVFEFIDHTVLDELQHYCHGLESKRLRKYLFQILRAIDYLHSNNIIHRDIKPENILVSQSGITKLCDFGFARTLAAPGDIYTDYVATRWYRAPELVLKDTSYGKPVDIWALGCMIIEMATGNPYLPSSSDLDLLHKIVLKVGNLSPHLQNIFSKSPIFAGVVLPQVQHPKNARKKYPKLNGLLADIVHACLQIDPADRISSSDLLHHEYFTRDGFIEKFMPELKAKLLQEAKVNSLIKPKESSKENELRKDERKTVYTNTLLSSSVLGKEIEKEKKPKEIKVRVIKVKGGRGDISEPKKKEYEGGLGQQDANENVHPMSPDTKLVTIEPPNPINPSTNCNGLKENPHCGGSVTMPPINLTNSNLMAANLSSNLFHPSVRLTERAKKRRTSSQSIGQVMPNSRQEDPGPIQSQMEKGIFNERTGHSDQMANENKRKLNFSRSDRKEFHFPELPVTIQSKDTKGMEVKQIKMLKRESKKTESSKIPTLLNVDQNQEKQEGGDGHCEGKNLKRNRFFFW
T8 sequence (P11309 whole entry): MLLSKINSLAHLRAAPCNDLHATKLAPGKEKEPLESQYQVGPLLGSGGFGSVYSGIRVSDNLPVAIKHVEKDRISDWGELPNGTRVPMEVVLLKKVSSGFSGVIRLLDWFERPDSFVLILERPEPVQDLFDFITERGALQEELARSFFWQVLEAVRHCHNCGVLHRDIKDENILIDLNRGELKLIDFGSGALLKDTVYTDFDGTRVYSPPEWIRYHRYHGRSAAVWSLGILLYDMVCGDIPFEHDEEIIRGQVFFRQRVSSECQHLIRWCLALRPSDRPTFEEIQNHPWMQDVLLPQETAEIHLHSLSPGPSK

C=CC(=O)Nc1cc(-c2cc(-c3cc4c([nH]3)CCNC4=O)ccn2)ccc1OC(F)(F)F [compound 11]
inhibition at 0.01 µM ([1]; 10 nM): -1%
inhibition at 0.1 µM ([1]; 100 nM): 1%
inhibition at 1 µM ([1]; 1000 nM): 5%
inhibition at 0.01 µM ([2]; 10 nM): 1%
inhibition at 0.1 µM ([2]; 100 nM): 10%
inhibition at 1 µM ([2]; 1000 nM): 7%
inhibition at 0.01 µM ([3]; 10 nM): -8%
inhibition at 0.1 µM ([3]; 100 nM): 5%
inhibition at 1 µM ([3]; 1000 nM): 43%
inhibition at 0.01 µM ([4]; 10 nM): 6%
inhibition at 0.1 µM ([4]; 100 nM): 13%
inhibition at 1 µM ([4]; 1000 nM): 12%
inhibition at 0.01 µM ([5]; 10 nM): -10%
inhibition at 0.1 µM ([5]; 100 nM): 3%
inhibition at 1 µM ([5]; 1000 nM): 31%
inhibition at 0.01 µM ([6]; 10 nM): -3%
inhibition at 0.1 µM ([6]; 100 nM): 6%
inhibition at 1 µM ([6]; 1000 nM): 4%
inhibition at 0.01 µM ([7]; 10 nM): -1%
inhibition at 0.1 µM ([7]; 100 nM): 6%
inhibition at 1 µM ([7]; 1000 nM): 26%
inhibition at 0.01 µM ([8]; 10 nM): -12%
inhibition at 0.1 µM ([8]; 100 nM): 12%
inhibition at 1 µM ([8]; 1000 nM): 41%
inhibition at 0.01 µM ([9]; 10 nM): 52%
inhibition at 0.1 µM ([9]; 100 nM): 88%
inhibition at 1 µM ([9]; 1000 nM): 99%
